# Data: US11382883B2, “Intermediate metabolism products to potentiate aminoglycoside antibiotics in bacterial infections” (TRUSTEES OF BOSTON UNIVERSITY, priority 2013, dated 2022)
# Entries after “also recorded” stand apart in the source; their conditions may differ.
# Assays:
# P. aeruginosa persisters = assay: Persister cell eradication: carbon sources plus tobramycin, survival by c.f.u. counting; assay type: cell-based, Pseudomonas aeruginosa; settings: for potentiation of tobramycin killing of persisters by carbon source (efficiency of tested metabolites): tobramycin 40 mg/l, carbon sources normalized to 60 mM carbon, M9 minimal media, ciprofloxacin-selected persisters; for potentiation of antibiotic efficacy / sensitization to aminoglycoside antibiotics: P. aeruginosa cells in various reduced metabolic states, in conjunction with aminoglycosides
# [1] = tested on: P. aeruginosa stationary phase cells; assay: Stationary phase cells eradication: carbon sources plus tobramycin, survival by c.f.u. counting; assay type: cell-based, Pseudomonas aeruginosa
# Method: Cells from frozen stock were plated overnight at 37° C., following which a single colony forming unit (CFU) was grown in Luria-Bertani (LB) broth at 300 r.p.m. and 80% humidity to an optical density at 600 nm (OD600) of 0.3. Cells were then diluted 1:1,000 in 25 ml LB and grown for 16 h at 37° C., 300 r.p.m. and 80% humidity in 250 ml flasks. Cells were then washed (Spin 5000 rpm (Thermofisher centrifuge) for 15 mins. Samples were then washed with 20 ml of 1× filtered PBS (again spin 5000 rpm for 15 mins) and re-suspended in M9 minimal media. Carbon sources and antibiotics (tobramycin 40 mg/l) were added and samples were incubated at 37° C., 300 r.p.m. and 80% humidity At specified time points, 10-μl aliquots of cells were removed and washed with PBS, serially diluted and spot-plated onto LB agar plates to determine colony-forming units per ml (c.f.u. ml−1). The concentration of carbon sources were normalized to deliver 60 mM carbon (for example 10 mM glucose, 15 mM fumarate, 20 mM pyruvate etc.). Survivors were enumerated by plating 10 ul aliquots with serial dilutions taken from 1 ml spun down and PBS washed (remaining AB). […] Survival was determined by dividing the c.f.u. ml−1 of a sample at each time point by the initial c.f.u. ml−1 for that sample.
# [2] = i.v. administration; cited from earlier work
SMILES,potentiation of tobramycin killing of persisters by carbon source (efficiency of tested metabolites) (P. aeruginosa persisters),potentiation of antibiotic efficacy / sensitization to aminoglycoside antibiotics (P. aeruginosa persisters),also measured
"O=C(CO)[C@@H](O)[C@H](O)[C@H](O)CO [Fructose, fructose]",not efficient,,
"OC[C@@H](O)[C@@H](O)[C@H](O)[C@H](O)CO [Mannitol, mannitol]",not efficient,,
O=C(O)/C=C/C(=O)O [fumarate],most potent,very strong results,"killing with incremental doses of fumarate for a given dose of tobramycin ([1]; FIG. 2, tobramycin 40 mg/L): increased killing; killing of P. aeruginosa in stationary phase by tobramycin ([1]; FIGS. 2A-2B): enables killing"
O=C(O)[C@H](O)[C@@H](O)[C@H](O)[C@H](O)CO [gluconate],variable levels of efficiency,,
CCC(=O)O [propionate],recapitulated this to some effect,sensitize the bacterium to aminoglycoside antibiotics,
O=C(O)CCC(=O)O [succinate],most potent,very strong results,
"NC[C@H]1O[C@H](O[C@H]2[C@H](O)[C@@H](O[C@H]3O[C@H](CO)[C@@H](O)[C@H](N)[C@H]3O)[C@H](N)C[C@@H]2N)[C@H](N)C[C@@H]1O [tobramycin, reference compound]",,,"killing with incremental doses of tobramycin for a given fumarate ([1]; FIG. 2, administered with fumarate): increased killing; also recorded: higher killing; typical peak serum concentration [2]: 40 mg/L"
